Counter-ions that a name gives are not always drawn.

The target of the first data set is T1, 5-HT4 receptor (Rattus norvegicus, UniProt Q62758).
T1 construct: muscular sample of mucous membrane in esophgus exentrated from a rat; from tissue; host or cells: rat oesophagus, muscularis mucosae (isolated tissue contracted with carbachol)
T1 sequence (Q62758 whole entry): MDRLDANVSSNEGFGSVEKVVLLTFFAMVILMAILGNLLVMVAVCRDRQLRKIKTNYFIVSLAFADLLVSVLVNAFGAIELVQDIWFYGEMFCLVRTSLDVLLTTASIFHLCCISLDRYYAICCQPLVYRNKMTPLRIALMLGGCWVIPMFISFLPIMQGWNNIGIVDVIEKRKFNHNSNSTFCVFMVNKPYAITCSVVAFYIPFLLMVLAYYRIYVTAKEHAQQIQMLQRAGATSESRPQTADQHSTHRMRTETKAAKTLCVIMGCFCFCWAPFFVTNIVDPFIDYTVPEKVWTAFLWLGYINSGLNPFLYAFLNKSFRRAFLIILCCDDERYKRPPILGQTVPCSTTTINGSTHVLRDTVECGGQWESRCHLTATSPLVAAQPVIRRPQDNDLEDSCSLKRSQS
As to the kind of experiment: Agonisting Action to 5-HT4 Receptor: relaxation of carbachol-contracted muscular sample of mucous membrane in rat esophagus. To be noted: negative logarithm of concentration causing 50% relaxation. The source says: Pharmacol.", Vol. 343, page 439 (1991)].
Namely, a relaxation of the Test and Control compounds in various concentration showing to carbachol contradiction of a muscular sample of mucous membrane in esophgus exentrated from a rat was checked to calculate a concentration causing 50% relaxation and compared with its negative logarithm (P EC50).
On to `CCCc1c(N)c(Cl)cc(C(=O)NCCC23CCCN2CCC3)c1OC` [Example 6, 4-Amino-N-[2-(1-azabicyclo[3.3.0]octan-5-yl)ethyl]-5-chloro-2-methoxy-3-propylbenzamide. 1/2 fumarate], for which the EC50 (usually the concentration that produces a half-maximal response) is 0.501 µM.
For the molecule `C=CCc1c(N)c(Cl)cc(C(=O)NCCC23CCCN2CCC3)c1OCC` [Example 9, 4-Amino-N-[2-(1-azabicyclo[3.3.0]octan-5-yl)ethyl]-5-chloro-2-ethoxy-3-(2-propenyl)benzamide. 1/2 fumarate], the negative logarithm of the EC50 (pEC50) – broadly, the negative decadic logarithm of the EC50, by convention in mol/L – is recorded as 6.3.
With `Cc1cc2c(N)c(Cl)cc(C(=O)NCCC34CCCN3CCC4)c2o1` [Example 4, 4-Amino-N-[2-(1-azabicyclo[3.3.0]octan-5-yl)ethyl]-5-chloro-2-methylbenzo[b]furan-7-carboxamide. 1/2 fumarate], the concentration giving a half-maximal response (EC50) is 0.0398 µM.
On the same count and under the same terms, in the case of `Cc1oc2c(C(=O)NCCC34CCCN3CCC4)ccc(N)c2c1Cl` [Example 3, 4-Amino-N-[2-(1-Azabicyclo[3.3.0]octan-5-yl)ethyl]-3-chloro-2-methylbenzo[b]furan-7-carboxamide.1/2 fumarate] it was 2 µM.
In the case of `CCCc1c(N)c(Cl)cc(C(=O)NCCC23CCCN2CCC3)c1OCC` [Example 7, 4-Amino-N-[2-(1-azabicyclo[3.3.0]octan-5-yl)ethyl]-5-chloro-2-ethoxy-3-propylbenzamide. 1/2 fumarate], a half-maximal response (EC50) required 0.398 µM.
On the same count and under the same terms, in the case of `Cc1oc2c(C(=O)NCCC34CCCN3CCC4)cc(Cl)c(N)c2c1Cl` [Example 5, 4-Amino-N-[2-(1-azabicyclo[3.3.0]octan-5yl)ethyl]-3,5-dichloro-2-methylbenzo[b]furan-7-carboxamide. 1/2 fumarate] it was 0.794 µM; in that of `CCOc1c(C(=O)NCCC23CCCN2CCC3)cc(Cl)c2c1CCN2` [Example 2, N-[2-(1-Azabicyclo[3.3.0]octan-5-yl)ethyl]-7-chloro-2,3-dihydro-4-ethoxyindole-5-carboxamide. 1/2 fumarate], 5.01 µM.
`C=CCc1c(N)c(Cl)cc(C(=O)NCCC23CCCN2CCC3)c1OC` [Example 8, 4-Amino-N-[2-(1-azabicyclo[3.3.0]octan-5-yl)ethyl]-5-chloro-2-methoxy-3-(2-propenyl)benzamide. 1/2 fumarate] gave a pEC50 of 6.3.
The molecule `COc1c(C(=O)NCCC23CCCN2CCC3)cc(Cl)c2c1CCN2` [Example 1, N-[2-(1-Azabicyclo[3.3.01]octan-5-yl)ethyl]-7-chloro-2,3-dihydro-4-methoxyindole-5-carboxamide. 1/2 fumarate] had an EC50 of 5.01 µM.

Another data set deals with dopamine D2 receptor.
Experiment: not given
The conditions noted are these: rat, in vivo, po, 100 mg/kg. The source says: The compounds (salts) obtained by Examples as well as known compound (Metoclopramide) were selected as Test and Control Compounds, respectively. The compound was orally administered to rats to observe for 2 days general symptoms including catalepsy and blepharoptosis due to antagonistic action of the compound to dopamine D2 receptor.
Take `CCN(CC)CCNC(=O)c1cc(Cl)c(N)cc1OC` [Metoclopramide, 4-amino-5-chloro-N-[(2-diethylamino)ethyl]-2-methoxybenzamide]: the “influence to central nerve system due to anti-dopamine action” value was “somewhat remarkable influence was recognized”.

For the origin of these results see patent publication US5539125A, “1-azabicyclo[3.3.0]octan derivative, salt thereof, process for the preparation of same and use thereof as hypermotility agents” (Sanwa Kagaku Kenkyusho Co., Ltd., priority 1994, dated 1996).
